Results from patent US8993320B2, “Culture method to obtain and maintain a pure or enriched population of mammalian neural stem cells and/or neural/progenitor cells that are prone to differentiate into oligodendrocyte-lineage cells in vitro” (priority 2011, dated 2015).

What was measured:
Type in all cases: cell-based, human
HFSC cells [1] = assay: Expansion of HFSC cells with growth factors and supplements (live cell count); conditions: for concentration at which expansion rate / response is saturated: established cell line #2b; for effect on cell status (vacuoles, cell number): supplement to DMEM/F12 with glutamine, pyruvate, B27, 1% NEAA, 1 mM N-acetyl-cysteine, 55 μM β-mercaptoethanol, data not shown; for effect on expansion rate: either 50 μM 1-thioglycerol added or PDGF-AA increased to 100 ng/ml (not both), with 10 ng/ml bFGF+10 ng/ml IGF-1, passage 5
Protocol: FIG. 4 illustrates the expansion rate of HFSC cells (cell line #2b) in the presence of different combinations of growth factors: (1): 20 ng/ml PDGF-AA+10 ng/ml bFGF; (2): 20 ng/ml PDGF-AA+10 ng/ml bFGF+5 ng/ml NT-3; (3): 20 ng/ml PDGF-AA+10 ng/ml bFGF+10 ng/ml IGF-1; (4): 20 ng/ml PDGF-AA+10 ng/ml bFGF+5 ng/ml NT-3+10 ng/ml IGF-1. The cells were harvested at day 11 of passage 3 (P3D11) and number of live cells in each condition was counted. Then, they were passaged in the same condition that was used at passage 3 at the same cell density. The cells were harvested at day 8 of passage 4 (P4D8) and number of live cells in each condition was counted (these cells were harvested before they became sub-confluent because they started forming spheres). […] Condition (3) was effective at both passages. FIG. 5 illustrates the effects of high dose of PDGF-AA (100 ng/ml) and 1-thioglycerol on the proliferation of HFSC cells (cell line #2b); cultured in HFSCM1 medium in the presence of the following combinations of growth factors: (1): 20 ng/ml PDGF-AA+10 ng/ml bFGF+10 ng/ml IGF-1; (2): 20 ng/ml PDGF-AA+10 ng/ml bFGF+10 ng/ml IGF-1+50 μM 1-thioglycerol; (3): 100 ng/ml PDGF-AA+10 ng/ml bFGF+10 ng/ml IGF-1; (4): 100 ng/ml PDGF-AA+10 ng/ml bFGF+10 ng/ml IGF-1+50 μM 1-thioglycerol; (5): 100 ng/ml PDGF-AA+10 ng/ml bFGF+50 μM 1-thioglycerol. The cells were harvested at day 7 of passage 5 (these cells were harvested before they became sub-confluent because they started forming spheres as they did at passage 4) and number of live cells in each condition was counted. The combination of 20 ng/ml PDGF-AA+10 ng/ml bFGF was also tested, but the recovered cell number was too low to evaluate (less than 1×10^4 cells which was under the countable range) and its data was eliminated from this figure. The condition (1) could expand cells at passage 3 but couldn't expand cells at passage 5. […] When the addition of 50 μM 1-thioglycerol and the increase of PDGF-AA concentration to 100 ng/ml were combined [condition (4)], the cell expansion rate improved dramatically and the cells could be expanded successfully. […] The cell “expansion rate” refers to the cell number on a particular date divided by the initial cell number at the start of culture. Human 15-week fetal spinal cord was dissected from the spinal column, with the meninges and peripheral nerves removed. The tissue then was dissociated with Accutase and washed and cells obtained from human fetal spinal cord were placed in a culture vessel containing the following growth medium: DMEM/F12 containing 2.5 mM glutamine and 15 mM HEPES, 2% B27 supplement (Invitrogen™), 1% NEAA, 1.5 mM pyruvate (Invitrogen™), 55 μM β-mercaptoethanol (Invitrogen™), 1 mM N-acetyl-L-cysteine (Sigma-Aldrich™), 20 ng/ml PDGF-AA (R&D SYSTEMS™, Inc., Minneapolis, Minn., USA) and 10 ng/ml bFGF (R&D SYSTEMS™). Cells were then placed in an incubator maintained at 37° C., 5% O2, and 5% CO2. bFGF (10 ng/ml) was added daily to the culture medium. Medium was changed every 2-3 days during passage. Based on the preliminary experiments, growing cells were not so many in the presence of PDGF-AA and bFGF and many cells stopped proliferating or died within a few weeks. […] To remove cells that are not responsive to PDGF-AA and bFGF, cells were cultured in an ultra-low adhesion culture plate ([…] Inc., Corning, N.Y., USA). […] Spheres were collected at lower speed of centrifugation (300 rpm for collecting spheres vs. 1,000 rpm for collecting single cells) for medium change and passaging. After 9 days, cells were harvested and passaged onto poly-ornithine-coated culture vessels. After this period, cells were passaged every 7-14 days. […] In addition, the cells began to appear unhealthy, forming vacuoles in their cytoplasm. As mentioned in Example 1, inclusion of PDGF-AA and bFGF in the culture medium supported adequate growth of the HFSC cells initially, but the proliferation rate slowed after 2 passages. […]

HFSC cells [2] = assay: as above; conditions: higher concentration of IGF-1 (50-500 ng/ml)
HFSC cells [3] = assay: Differentiation of HFSC cells in serum-free medium (GD3/O4 staining, morphology)
Protocol: FIG. 7 depicts spontaneous differentiation of HFSC cells in serum-free medium in slides A-F. Slides A and B are phase contrast images taken with an inverted microscope showing the morphological change of HFSC cells (cell line #2b) at passage 12, day 9 (FIG. 7, slides A & B) after being cultured in HFSCM1 medium supplemented with 20 ng/ml PDGF-AA, 10 ng/ml bFGF, 10 ng/ml IGF-1 and 50 μM 1-thioglycerol (FIG. 7, slide A) or without 1-thioglycerol (FIG. 7, slide B). HFSC cells were differentiated spontaneously without replenishing bFGF between changing medium. Even in the same condition, HFSC cells didn't differentiate if bFGF was replenished everyday and seemed to grow slowly. […] The ratio of oligodendrocyte progenitor cells and other cell types to differentiated cells (oligodendrocyte progenitor cells plus other cell types) were calculated and shown in FIG. 15, slide E. Oligodendrocyte progenitor cell was 99.1%±0.56% of differentiated cells whereas other cell types were 0.9%±0.56% of differentiated cells. […]

insulin-like growth factor-1 [IGF-1]
concentration at which expansion rate / response is saturated (HFSC cells [1]): 40 ng/mL
differentiated cells seen (HFSC cells [2]): around 1%

CC(=O)N[C@@H](CS)C(=O)O [N-acetyl-cysteine, reference compound]
effect on cell status (vacuoles, cell number) (HFSC cells [1]): seemed to improve the cells' status

Nc1ncnc2c1nc(Sc1ccc(Cl)cc1)n2[C@@H]1O[C@@H]2COP(=O)(O)O[C@H]2[C@H]1O [pCPT-cAMP, reference compound]
induction of differentiation (HFSC cells [3]; 100 μM, high density (3×10^4 cells/cm^2)): could induce differentiation

platelet derived growth factor-AA [PDGF-AA]
effect on expansion rate (HFSC cells [1]): very little positive effect
concentration at which expansion rate / response is saturated (HFSC cells [1]): 10 to 20 ng/mL
effect on spontaneous differentiation (HFSC cells [3]; 40 ng/ml or higher PDGF-AA): blocked to differentiate

OCC(O)CS (stereo not shown) [1-thioglycerol, reference compound]
effect on expansion rate (HFSC cells [1]): very little positive effect

basic fibroblast growth factor [bFGF]
concentration at which expansion rate / response is saturated (HFSC cells [1]): 20 ng/mL

OCCS [β-mercaptoethanol, reference compound]
effect on cell status (vacuoles, cell number) (HFSC cells [1]): seemed to improve the cells' status
